Test results taken from ChEMBL document CHEMBL5727878, “Triazole furan compounds as agonists of the APJ receptor” (2020).

Molecular target: T1, Apelin receptor (Homo sapiens, UniProt P35414)
T1 sequence (P35414 whole entry): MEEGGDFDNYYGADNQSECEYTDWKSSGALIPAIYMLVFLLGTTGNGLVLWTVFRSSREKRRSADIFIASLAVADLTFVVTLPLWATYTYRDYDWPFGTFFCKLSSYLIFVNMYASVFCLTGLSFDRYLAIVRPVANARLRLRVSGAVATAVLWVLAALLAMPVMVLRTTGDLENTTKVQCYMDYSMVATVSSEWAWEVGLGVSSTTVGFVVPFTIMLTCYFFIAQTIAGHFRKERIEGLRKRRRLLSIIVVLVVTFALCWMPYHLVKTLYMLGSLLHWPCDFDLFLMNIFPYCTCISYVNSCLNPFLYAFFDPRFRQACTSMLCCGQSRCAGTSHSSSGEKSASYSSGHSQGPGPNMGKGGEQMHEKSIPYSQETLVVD
Experiment: GTPγS Binding: The human APJ receptor was cloned by polymerase chain reaction and the gene encoding the receptor was subcloned in pFLAG-CMV-3 expression vector (Sigma, Saint Louis, Mo. USA) in-house at Amgen. A GTPγS binding assay was performed on membranes prepared from CHO cells stably expressing human APJ receptor. The optimum experimental conditions for the concentrations of GDP, MgCl2, and NaCl in the assay buffer were initially determined. The assay was performed in assay buffer [20 mM HEPES, pH 7.5, 5 mM MgCl2, and 0.1% (w/v) BSA with 200 mM NaCl, 3 μM GDP] and membranes expressing human APJ receptor/well along with WGA PS beads. The reaction was initiated by addition of 0.2 nM [35S]GTPγS in the absence or presence of various ligands and incubated at RT for 90 min. Nonspecific binding was determined in the presence of 100 μM GTPγS and was always less than 0.2% of total binding.

In the case of `COc1cccc(OC)c1-n1c(NS(=O)(=O)[C@@H](C)[C@H](O)c2cscn2)nnc1-c1ccc(C)o1` (mixture of isomers), the EC50 is reported as 1.2 nM.

For `COc1cccc(OC)c1-n1c(NS(=O)(=O)[C@@H](C)Cc2ncc(F)c3[nH]cnc23)nnc1-c1ccco1` (single isomer, unassigned), the EC50 was 28 nM.

`COc1cc[nH]c(=O)c1-n1c(NS(=O)(=O)[C@@H](C)[C@H](C)c2ncc(F)cn2)nnc1-c1ccc(C)o1` (single isomer, unassigned; form 1) was tested, and the EC50 was 0.67 nM.

Molecule `COc1cccc(OC)c1-n1c(NS(=O)(=O)C[C@H](O)c2ccc(F)cn2)nnc1-c1ccc(C)o1` (single isomer, unassigned) has an EC50 of 0.29 nM.

In the case of `COc1cccc(OC)c1-n1c(NS(=O)(=O)[C@@H](C)[C@H](OC)c2ccc(C#N)cc2C#N)nnc1-c1ccc(C)o1` (mixture of isomers), the EC50 is reported as 0.21 nM.

For `COc1cccc(OC)c1-n1c(NS(=O)(=O)C[C@H](O)c2ccc(Cl)cc2S(C)(=O)=O)nnc1-c1ccc(C)o1` (single isomer, unassigned), the EC50 was 0.09 nM.

`COc1cccc(OC)c1-n1c(NS(=O)(=O)[C@H](C)[C@@H](O)c2cnc(C)cn2)nnc1-c1ccc(C)o1` (single isomer, unassigned) gave an EC50 of 1.5 nM.

Work on `COc1cccc(OC)c1-n1c(NS(=O)(=O)[C@@H](C)Cc2ncc(F)c3c2ncn3C)nnc1-c1ccco1` (single isomer, unassigned) yielded an EC50 of 0.98 nM.

With `Cc1ccc(-c2nnc(NS(=O)(=O)[C@@H](C)Cc3ncc(F)cn3)n2C2CCCC2)o1` (mixture of isomers) the EC50 was 270 nM.

For `COc1cccc(OC)c1-n1c(NS(=O)(=O)C[C@H](O)c2ccc(F)cn2)nnc1-c1ccc(C)o1` (mixture of isomers), the EC50 was 0.17 nM.

For `COc1cccc(OC)c1-n1c(NS(=O)(=O)[C@@H](C)[C@@H](OCCO)c2ncc(C)cn2)nnc1-c1ccc(C)o1` (single isomer, unassigned), the EC50 was 0.15 nM.

With `COc1cccc(OC)c1-n1c(NS(=O)(=O)[C@H](C)[C@@H](O)c2ccnc3c2OCCC3)nnc1-c1ccc(C)o1` (mixture of isomers) the EC50 was 13 nM.

With `COc1cccc(OC)c1-n1c(NS(=O)(=O)CCc2ccc(F)cn2)nnc1-c1ccco1` the EC50 was 12 nM.

`COc1cccc(OC)c1-n1c(NS(=O)(=O)C[C@@H](C)c2ncc(C)cn2)nnc1-c1ccco1` (single isomer, unassigned) gave an EC50 of 6.7 nM.

With `COc1cccc(OC)c1-n1c(NS(=O)(=O)CCN2C(=O)CCC[C@@H]2C)nnc1-c1ccco1` (single isomer, unassigned) the EC50 was 1 nM.

Molecule `CCc1cnc([C@@H](C)[C@H](C)S(=O)(=O)Nc2nnc(-c3ccc(C)o3)n2-c2c(OC)cccc2OC)nc1` (single isomer, unassigned) has an EC50 of 3.4 nM.

Work on `COc1cccc(OC)c1-n1c(NS(=O)(=O)[C@@H]2C[C@H](c3ccc(F)cc3)CN(C(C)=O)C2)nnc1-c1ccc(C)o1` (single isomer, unassigned) yielded an EC50 of 1.1 nM.

For `COC[C@@H]1CCCC(=O)N1CCS(=O)(=O)Nc1nnc(-c2ccco2)n1-c1c(OC)cccc1OC` (single isomer, unassigned), the EC50 was 2.1 nM.

`COc1cccc(OC)c1-n1c(NS(=O)(=O)[C@H]2CCC[C@@H]2c2ncc(F)cn2)nnc1-c1ccc(C)o1` (mixture of isomers) was tested, and the EC50 was 2 nM.

In the case of `COc1cccc(OC)c1-n1c(NS(=O)(=O)[C@@H]2C[C@@H](C(=O)N3CCC3)CN(c3ncc(F)cn3)C2)nnc1-c1ccc(C)o1` (mixture of isomers), the EC50 is reported as 0.32 nM.

`COc1cccc(OC)c1-n1c(NS(=O)(=O)CCc2ncc(F)cn2)nnc1-c1ccco1` was tested, and the EC50 was 3.2 nM.

Molecule `COc1cccc(OC)c1-n1c(NS(=O)(=O)[C@H]2CCCC[C@H]2c2ncc(F)cn2)nnc1-c1ccco1` (single isomer, unassigned) has an EC50 of 4.5 nM.

`COc1cccc(OC)c1-n1c(NS(=O)(=O)[C@H]2C[C@@H](O)CN(c3cc(C#N)ccn3)C2)nnc1-c1ccc(C)o1` (single isomer, unassigned) gave an EC50 of 0.17 nM.

In the case of `COc1cccc(OC)c1-n1c(NS(=O)(=O)[C@H](C)Cc2ncc(F)cn2)nnc1-c1ccco1` (mixture of isomers), the EC50 is reported as 0.29 nM.
